According to US9694016B2 (Novartis AG, priority 2013, dated 2017):

Each compound was assayed against b-Raf (V600E) (Homo sapiens (Human), UniProt P15056, V600E). Details: read-out: b-Raf IC-50; AlphaScreen, 60 min pre-incubation, reaction 3 hours at room temperature.
Chain of b-Raf (V600E) (P15056 whole entry V600E): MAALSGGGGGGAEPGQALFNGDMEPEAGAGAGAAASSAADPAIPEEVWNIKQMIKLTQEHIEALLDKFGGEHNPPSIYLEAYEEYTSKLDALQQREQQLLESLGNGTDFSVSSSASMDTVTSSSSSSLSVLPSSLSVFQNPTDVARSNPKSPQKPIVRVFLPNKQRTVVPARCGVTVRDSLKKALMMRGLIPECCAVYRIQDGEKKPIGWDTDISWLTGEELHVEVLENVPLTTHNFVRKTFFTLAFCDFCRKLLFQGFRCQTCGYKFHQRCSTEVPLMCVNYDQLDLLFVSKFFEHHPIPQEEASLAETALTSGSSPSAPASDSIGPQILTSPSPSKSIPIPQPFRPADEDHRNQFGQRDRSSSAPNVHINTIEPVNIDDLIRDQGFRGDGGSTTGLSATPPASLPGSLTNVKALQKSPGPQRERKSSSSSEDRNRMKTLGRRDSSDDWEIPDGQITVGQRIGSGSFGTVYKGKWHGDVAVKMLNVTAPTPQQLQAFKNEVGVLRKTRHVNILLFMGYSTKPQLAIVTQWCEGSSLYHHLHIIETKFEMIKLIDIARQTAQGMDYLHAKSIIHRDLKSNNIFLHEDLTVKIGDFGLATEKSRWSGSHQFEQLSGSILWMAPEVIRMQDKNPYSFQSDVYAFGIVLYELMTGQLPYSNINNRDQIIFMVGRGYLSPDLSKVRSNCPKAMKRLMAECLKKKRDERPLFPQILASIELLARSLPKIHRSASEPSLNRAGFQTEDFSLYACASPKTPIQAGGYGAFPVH
`Cc1ncc(NC(=O)c2ccnc(C(C)(C)C#N)c2)cc1-c1cc(N2CCOCC2)nc(N2CC(O)C2)c1` [Example 1083, 2-(2-cyanopropan-2-yl)-N-(2′-(3-hydroxyazetidin-1-yl)-2-methyl-6′-morpholino-[3,4′-bipyridin]-5-yl)isonicotinamide] gave an IC50 of 35.2 nM. In the case of `Cc1ncc(NC(=O)c2cccc(S(C)(=O)=O)c2)cc1-c1cc(N2CCOCC2)nc(N2CC(O)C2)c1` [Example 1084, N-(2′-(3-hydroxyazetidin-1-yl)-2-methyl-6′-morpholino-[3,4′-bipyridin]-5-yl)-3-(methylsulfonyl)benzamide], the IC50 is reported as 23.3 nM. `Cc1ncc(NC(=O)c2cc(CN(C)C)cc(C(F)(F)F)c2)cc1-c1cc(N2CCOCC2)nc(N2CC(O)C2)c1` [Example 1085, 3-((dimethylamino)methyl)-N-(2′-(3-hydroxyazetidin-1-yl)-2-methyl-6′-morpholino-[3,4′-bipyridin]-5-yl)-5-(trifluoromethyl)benzamide] gave an IC50 of 108 nM. `CCn1cc(C(=O)Nc2cnc(C)c(-c3cc(N4CCOCC4)nc(N4CC(O)C4)c3)c2)cc(C(F)(F)F)c1=O` [Example 1086, 1-ethyl-N-(2′-(3-hydroxyazetidin-1-yl)-2-methyl-6′-morpholino-[3,4′-bipyridin]-5-yl)-6-oxo-5-(trifluoromethyl)-1,6-dihydropyridine-3-carboxamide] was tested, and the IC50 was 20.7 nM. Compound `CCN1CCN(c2cc(C(=O)Nc3cnc(C)c(-c4cc(N5CCOCC5)nc(N5CC(O)C5)c4)c3)cc(C(F)(F)F)c2)CC1` [Example 1087, 3-(4-ethylpiperazin-1-yl)-N-(2′-(3-hydroxyazetidin-1-yl)-2-methyl-6′-morpholino-[3,4′-bipyridin]-5-yl)-5-(trifluoromethyl)benzamide] has an IC50 of 26.5 nM. `Cc1ncc(NC(=O)c2ccnc(C(F)(F)F)c2)cc1-c1cc(N2CCOCC2)nc(N2CC(O)C2)c1` [Example 1088, N-(2′-(3-hydroxyazetidin-1-yl)-2-methyl-6′-morpholino-[3,4′-bipyridin]-5-yl)-2-(trifluoromethyl)isonicotinamide] showed an IC50 of 4.06 nM. `Cc1ncc(NC(=O)c2ccnc(C(C)(C)C)c2)cc1-c1cc(N2CCOCC2)nc(N2CC(O)C2)c1` [Example 1089, 2-(tert-butyl)-N-(2′-(3-hydroxyazetidin-1-yl)-2-methyl-6′-morpholino-[3,4′-bipyridin]-5-yl)isonicotinamide] showed an IC50 of 71.4 nM. `Cc1ncc(NC(=O)c2ccnc(S(C)(=O)=O)c2)cc1-c1cc(N2CCOCC2)nc(N2CC(O)C2)c1` [Example 1090, N-(2′-(3-hydroxyazetidin-1-yl)-2-methyl-6′-morpholino-[3,4′-bipyridin]-5-yl)-2-(methylsulfonyl)isonicotinamide] gave an IC50 of 51.1 nM. `Cc1ncc(NC(=O)c2cccc(C(C)(C)S(C)(=O)=O)c2)cc1-c1cc(N2CCOCC2)nc(N2CC(O)C2)c1` [Example 1091, N-(2′-(3-hydroxyazetidin-1-yl)-2-methyl-6′-morpholino-[3,4′-bipyridin]-5-yl)-3-(2-(methylsulfonyl)propan-2-yl)benzamide] was tested, and the IC50 was 1110 nM. For `Cc1ncc(NC(=O)c2cccc(-c3nnco3)c2)cc1-c1cc(N2CCOCC2)nc(N2CC(O)C2)c1` [Example 1092, N-(2′-(3-hydroxyazetidin-1-yl)-2-methyl-6′-morpholino-[3,4′-bipyridin]-5-yl)-3-(1,3,4-oxadiazol-2-yl)benzamide], the IC50 was 34.9 nM. In the case of `Cc1ncc(NC(=O)c2cc(C3CC3)on2)cc1-c1cc(N2CCOCC2)nc(N2CC(O)C2)c1` [Example 1093, 5-cyclopropyl-N-(2′-(3-hydroxyazetidin-1-yl)-2-methyl-6′-morpholino-[3,4′-bipyridin]-5-yl)isoxazole-3-carboxamide], the IC50 is reported as 6.58 nM. `Cc1ncc(NC(=O)c2cccc(C(F)(F)F)c2)cc1-c1cc(N2CCOCC2)nc(N2CC(O)C2)c1` [Example 1094, N-(2′-(3-hydroxyazetidin-1-yl)-2-methyl-6′-morpholino-[3,4′-bipyridin]-5-yl)-3-(trifluoromethyl)benzamide] showed an IC50 of 3.84 nM. Work on `Cc1ccc(NC(=O)c2cc(C3CC3)on2)cc1-c1cc(N2CCOCC2)nc(N2CC(O)C2)c1` [Example 1095, 5-cyclopropyl-N-(3-(2-(3-hydroxyazetidin-1-yl)-6-morpholinopyridin-4-yl)-4-methylphenyl)isoxazole-3-carboxamide] yielded an IC50 of 1.11 nM. `Cc1ccc(NC(=O)c2cccc(S(C)(=O)=O)c2)cc1-c1cc(N2CCOCC2)nc(N2CC(O)C2)c1` [Example 1096, N-(3-(2-(3-hydroxyazetidin-1-yl)-6-morpholinopyridin-4-yl)-4-methylphenyl)-3-(methylsulfonyl)benzamide] showed an IC50 of 2 nM. Compound `Cc1ccc(NC(=O)c2ccnc(S(C)(=O)=O)c2)cc1-c1cc(N2CCOCC2)nc(N2CC(O)C2)c1` [Example 1097, N-(3-(2-(3-hydroxyazetidin-1-yl)-6-morpholinopyridin-4-yl)-4-methylphenyl)-2-(methylsulfonyl)isonicotinamide] has an IC50 of 3.32 nM. In the case of `Cc1ccc(NC(=O)c2ccnc(C(C)(C)O)c2)cc1-c1cc(N2CCOCC2)nc(N2CC(O)C2)c1` [Example 1098, N-(3-(2-(3-hydroxyazetidin-1-yl)-6-morpholinopyridin-4-yl)-4-methylphenyl)-2-(2-hydroxypropan-2-yl)isonicotinamide], the IC50 is reported as 5.75 nM. `Cc1ccc(NC(=O)c2cccc(C(C)(C)S(C)(=O)=O)c2)cc1-c1cc(N2CCOCC2)nc(N2CC(O)C2)c1` [Example 1099, N-(3-(2-(3-hydroxyazetidin-1-yl)-6-morpholinopyridin-4-yl)-4-methylphenyl)-3-(2-(methylsulfonyl)propan-2-yl)benzamide] gave an IC50 of 18.8 nM. `Cc1ccc(NC(=O)c2cccc(-c3nnco3)c2)cc1-c1cc(N2CCOCC2)nc(N2CC(O)C2)c1` [Example 1100, N-(3-(2-(3-hydroxyazetidin-1-yl)-6-morpholinopyridin-4-yl)-4-methylphenyl)-3-(1,3,4-oxadiazol-2-yl)benzamide] gave an IC50 of 3.89 nM. With `Cc1ncc(NC(=O)c2cnnc(C3CC3)c2)cc1-c1cc(N2CCOCC2)nc(N2CC(C)(O)C2)c1` [Example 1101, 6-cyclopropyl-N-(2′-(3-hydroxy-3-methylazetidin-1-yl)-2-methyl-6′-morpholino-[3,4′-bipyridin]-5-yl)pyridazine-4-carboxamide] the IC50 was 13.7 nM. `Cc1ncc(NC(=O)c2ccnc(C3CC3)c2)cc1-c1cc(N2CCOCC2)nc(N2CC(C)(O)C2)c1` [Example 1102, 2-cyclopropyl-N-(2′-(3-hydroxy-3-methylazetidin-1-yl)-2-methyl-6′-morpholino-[3,4′-bipyridin]-5-yl)isonicotinamide] showed an IC50 of 4.45 nM. Work on `Cc1ncc(NC(=O)c2ccnc(C(F)F)c2)cc1-c1cc(N2CCOCC2)nc(N2CC(C)(O)C2)c1` [Example 1103, 2-(difluoromethyl)-N-(2′-(3-hydroxy-3-methylazetidin-1-yl)-2-methyl-6′-morpholino-[3,4′-bipyridin]-5-yl)isonicotinamide] yielded an IC50 of 6.7 nM. For `Cc1ncc(NC(=O)c2ccnc(C(F)(F)F)c2)cc1-c1cc(N2CCOCC2)nc(N2CC(C)(O)C2)c1` [Example 1104, N-(2′-(3-hydroxy-3-methylazetidin-1-yl)-2-methyl-6′-morpholino-[3,4′-bipyridin]-5-yl)-2-(trifluoromethyl)isonicotinamide], the IC50 was 7.64 nM. For `Cc1ncc(NC(=O)c2ccnc(C(C)(F)F)c2)cc1-c1cc(N2CCOCC2)nc(N2CC(C)(O)C2)c1` [Example 1105, 2-(1,1-difluoroethyl)-N-(2′-(3-hydroxy-3-methylazetidin-1-yl)-2-methyl-6′-morpholino-[3,4′-bipyridin]-5-yl)isonicotinamide], the IC50 was 5.62 nM. Work on `Cc1ncc(NC(=O)c2ccnc(C(C)(C)F)c2)cc1-c1cc(N2CCOCC2)nc(N2CC(C)(O)C2)c1` [Example 1106, 2-(2-fluoropropan-2-yl)-N-(2′-(3-hydroxy-3-methylazetidin-1-yl)-2-methyl-6′-morpholino-[3,4′-bipyridin]-5-yl)isonicotinamide] yielded an IC50 of 8.59 nM. Work on `Cc1ncc(NC(=O)c2cnnc(C(F)(F)F)c2)cc1-c1cc(N2CCOCC2)nc(N2CC(C)(O)C2)c1` [Example 1107, N-(2′-(3-hydroxy-3-methylazetidin-1-yl)-2-methyl-6′-morpholino-[3,4′-bipyridin]-5-yl)-6-(trifluoromethyl)pyridazine-4-carboxamide] yielded an IC50 of 13.4 nM. `Cc1ncc(NC(=O)c2ccnc(C(C)(C)C#N)c2)cc1-c1cc(N2CCOCC2)nc(N2CC(C)(O)C2)c1` [Example 1108, 2-(2-cyanopropan-2-yl)-N-(2′-(3-hydroxy-3-methylazetidin-1-yl)-2-methyl-6′-morpholino-[3,4′-bipyridin]-5-yl)isonicotinamide] showed an IC50 of 20.4 nM. In the case of `Cc1ncc(NC(=O)c2ccnc(C3(C#N)CC3)c2)cc1-c1cc(N2CCOCC2)nc(N2CC(C)(O)C2)c1` [Example 1109, 2-(1-cyanocyclopropyl)-N-(2′-(3-hydroxy-3-methylazetidin-1-yl)-2-methyl-6′-morpholino-[3,4′-bipyridin]-5-yl)isonicotinamide], the IC50 is reported as 8.02 nM. `Cc1ccc(NC(=O)c2ccnc(C(C)(C)C#N)c2)cc1-c1cc(N2CCOCC2)nc(N2CC(C)(O)C2)c1` [Example 1110, 2-(2-cyanopropan-2-yl)-N-(3-(2-(3-hydroxy-3-methylazetidin-1-yl)-6-morpholinopyridin-4-yl)-4-methylphenyl)isonicotinamide] showed an IC50 of 4.82 nM. Compound `Cc1ccc(NC(=O)c2ccnc(C3(C#N)CC3)c2)cc1-c1cc(N2CCOCC2)nc(N2CC(C)(O)C2)c1` [Example 1111, 2-(1-cyanocyclopropyl)-N-(3-(2-(3-hydroxy-3-methylazetidin-1-yl)-6-morpholinopyridin-4-yl)-4-methylphenyl)isonicotinamide] has an IC50 of 2.09 nM. `Cc1ccc(NC(=O)c2ccnc(C(F)(F)F)c2)cc1-c1cc(N2CCOCC2)nc(N2CCOCC2)c1` [Example 1112, N-(3-(2,6-dimorpholinopyridin-4-yl)-4-methylphenyl)-2-(trifluoromethyl)isonicotinamide] gave an IC50 of 0.83 nM. In the case of `Cc1ccc(NC(=O)c2ccnc(C(C)(C)C#N)c2)cc1-c1cc(N2CCOCC2)nc(N2CCOCC2)c1` [Example 1113, 2-(2-cyanopropan-2-yl)-N-(3-(2,6-dimorpholinopyridin-4-yl)-4-methylphenyl)isonicotinamide], the IC50 is reported as 1.32 nM.
